These results are taken from patent US5776928A (priority 1995, dated 1998).

One data set deals with 5-HT1C receptor. Nature of the data set: activity at the 5-HT1C receptor. Particulars: anhydrous Form I.
For data set [1], the system named is muscarinic cholinergic receptor. Nature of the data set: pharmacological studies, muscarinic cholinergic receptor activity.
Data set [2] in a line: detection of radiolabelled compound in saliva. The data set is classed as in vivo. The protocol: For example, in the treatment of adult humans, dosages of from about 0.25 to 50 mg, preferably from 1 to 30 mg, and most preferably 1 to 20 mg per day may be used. A once a day dosage is normally sufficient, although divided doses may be administered. For treatment of a dyskinesia, a dose range of from 1 to 30 mg, preferably 1 to 20 mg per day is suitable.

The next data set concerns clinical subjects. Nature of the data set: clinical observation of pupils in clinical subjects. The data set is classed as in vivo.
In the next data set the test system is rats. Description: in vivo observation in rats exposed to an overdose.

With `Cc1cc2c(s1)Nc1ccccc1N=C2N1CCN(C)CC1` [anhydrous Form I compound], the “activity at the 5-HT1C receptor” value in the data set with 5-HT1C receptor is on record as “active”.
Consider `Cc1cc2c(s1)Nc1ccccc1N=C2N1CCN(C)CC1`, for which, in data set [1], the “muscarinic cholinergic receptor activity” value is listed as “has muscarinic cholinergic receptor activity”. For the same compound, in data set [2], the “detection in the saliva” value was “can be detected in the saliva”. Also, in the data set with clinical subjects, the pupilary effect result is given as “pupilary constriction rather than the expected pupilary dilation”. Further, the salivation result with rats is on record as “significant salivation”.
